Experiments:
[1] = target: Ribosomal protein S6 kinase alpha-5 (Homo sapiens) (UniProt O75582)
[2] = target: Delta-type opioid receptor (Homo sapiens) (UniProt P41143); settings: Compound concentration 10.0 uM
[3] = target: Dual specificity protein kinase CLK2 (Homo sapiens) (UniProt P49760)
[4] = target: Tyrosine-protein kinase BTK (Homo sapiens) (UniProt Q06187)
[5] = target: Histamine H1 receptor (Homo sapiens) (UniProt P35367); settings: Compound concentration 10.0 uM
[6] = target: T1, Alpha-2C adrenergic receptor (Homo sapiens) (UniProt P18825); settings: Compound concentration 10.0 uM
T1 sequence (whole entry): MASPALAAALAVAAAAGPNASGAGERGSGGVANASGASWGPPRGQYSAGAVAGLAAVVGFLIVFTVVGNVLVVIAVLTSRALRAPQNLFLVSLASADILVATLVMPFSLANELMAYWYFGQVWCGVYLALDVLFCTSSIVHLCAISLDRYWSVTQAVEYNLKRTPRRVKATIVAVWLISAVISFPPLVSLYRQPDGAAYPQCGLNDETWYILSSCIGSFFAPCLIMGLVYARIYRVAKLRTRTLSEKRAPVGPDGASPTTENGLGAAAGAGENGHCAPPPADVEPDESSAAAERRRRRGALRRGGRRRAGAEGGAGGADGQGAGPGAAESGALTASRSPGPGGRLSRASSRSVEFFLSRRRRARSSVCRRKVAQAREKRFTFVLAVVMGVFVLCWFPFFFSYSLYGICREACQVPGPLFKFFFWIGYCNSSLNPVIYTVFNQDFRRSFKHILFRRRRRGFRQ

[7] = target: Ephrin type-A receptor 5 (Homo sapiens) (UniProt P54756)
[8] = target: Dual specificity tyrosine-phosphorylation-regulated kinase 2 (Homo sapiens) (UniProt Q92630)
Sequence of Dual specificity tyrosine-phosphorylation-regulated kinase 2 (Homo sapiens) (Q92630 whole entry): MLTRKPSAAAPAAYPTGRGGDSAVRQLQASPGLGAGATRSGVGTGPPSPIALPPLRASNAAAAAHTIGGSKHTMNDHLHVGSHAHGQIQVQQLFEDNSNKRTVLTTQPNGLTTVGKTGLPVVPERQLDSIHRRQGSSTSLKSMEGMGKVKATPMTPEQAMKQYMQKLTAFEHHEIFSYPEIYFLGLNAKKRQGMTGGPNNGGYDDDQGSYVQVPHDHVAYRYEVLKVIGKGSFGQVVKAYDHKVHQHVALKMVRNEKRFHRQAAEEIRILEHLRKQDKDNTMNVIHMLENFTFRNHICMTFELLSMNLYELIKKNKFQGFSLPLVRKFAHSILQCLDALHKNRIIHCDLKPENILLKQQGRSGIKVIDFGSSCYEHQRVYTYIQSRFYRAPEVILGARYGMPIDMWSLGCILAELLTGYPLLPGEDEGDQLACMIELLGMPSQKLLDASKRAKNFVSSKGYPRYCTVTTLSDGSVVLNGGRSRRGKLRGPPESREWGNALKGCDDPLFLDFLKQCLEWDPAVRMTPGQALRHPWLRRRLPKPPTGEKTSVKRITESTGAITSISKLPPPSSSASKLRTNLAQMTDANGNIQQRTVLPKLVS

[9] = target: Sodium-dependent serotonin transporter (Homo sapiens) (UniProt P31645); settings: Compound concentration 10.0 uM
[10] = target: Serine/threonine-protein kinase TNNI3K (Homo sapiens) (UniProt Q59H18)
[11] = target: Serine/threonine-protein kinase PLK3 (Homo sapiens) (UniProt Q9H4B4)
Sequence of Serine/threonine-protein kinase PLK3 (Homo sapiens) (Q9H4B4 whole entry, looked up): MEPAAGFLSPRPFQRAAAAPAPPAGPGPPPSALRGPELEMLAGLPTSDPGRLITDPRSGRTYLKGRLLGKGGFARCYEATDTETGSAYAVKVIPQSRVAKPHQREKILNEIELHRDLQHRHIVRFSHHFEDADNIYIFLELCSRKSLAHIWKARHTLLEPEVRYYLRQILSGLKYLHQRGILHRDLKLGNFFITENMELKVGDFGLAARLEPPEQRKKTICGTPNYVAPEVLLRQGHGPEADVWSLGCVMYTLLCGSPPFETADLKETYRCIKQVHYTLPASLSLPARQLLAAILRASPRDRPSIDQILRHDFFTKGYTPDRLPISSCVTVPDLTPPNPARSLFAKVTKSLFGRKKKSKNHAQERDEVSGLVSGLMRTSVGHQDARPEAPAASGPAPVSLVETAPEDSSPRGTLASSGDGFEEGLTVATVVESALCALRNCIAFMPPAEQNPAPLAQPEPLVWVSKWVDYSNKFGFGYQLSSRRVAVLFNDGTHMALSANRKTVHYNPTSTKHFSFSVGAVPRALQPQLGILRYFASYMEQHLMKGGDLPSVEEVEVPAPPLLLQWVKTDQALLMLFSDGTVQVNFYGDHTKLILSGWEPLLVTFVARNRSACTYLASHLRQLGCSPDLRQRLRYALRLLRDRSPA

[12] = target: MAP kinase-interacting serine/threonine-protein kinase 1 (Homo sapiens) (UniProt Q9BUB5)
Sequence of MAP kinase-interacting serine/threonine-protein kinase 1 (Homo sapiens) (Q9BUB5 whole entry, looked up): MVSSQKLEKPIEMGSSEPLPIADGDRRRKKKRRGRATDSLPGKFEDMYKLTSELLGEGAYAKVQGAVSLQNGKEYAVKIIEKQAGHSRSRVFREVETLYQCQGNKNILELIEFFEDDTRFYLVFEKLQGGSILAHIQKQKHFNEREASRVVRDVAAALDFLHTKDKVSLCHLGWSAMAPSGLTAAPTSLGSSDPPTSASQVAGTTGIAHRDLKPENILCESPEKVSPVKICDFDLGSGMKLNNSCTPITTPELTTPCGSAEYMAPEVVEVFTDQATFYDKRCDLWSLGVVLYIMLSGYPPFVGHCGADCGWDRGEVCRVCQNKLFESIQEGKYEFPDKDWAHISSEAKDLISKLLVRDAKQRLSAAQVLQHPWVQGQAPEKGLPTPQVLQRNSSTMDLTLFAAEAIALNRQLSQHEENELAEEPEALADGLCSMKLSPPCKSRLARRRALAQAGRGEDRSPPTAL

[13] = target: Calcium/calmodulin-dependent protein kinase type II subunit gamma (Homo sapiens) (UniProt Q13555)
Sequence of Calcium/calmodulin-dependent protein kinase type II subunit gamma (Homo sapiens) (Q13555 whole entry): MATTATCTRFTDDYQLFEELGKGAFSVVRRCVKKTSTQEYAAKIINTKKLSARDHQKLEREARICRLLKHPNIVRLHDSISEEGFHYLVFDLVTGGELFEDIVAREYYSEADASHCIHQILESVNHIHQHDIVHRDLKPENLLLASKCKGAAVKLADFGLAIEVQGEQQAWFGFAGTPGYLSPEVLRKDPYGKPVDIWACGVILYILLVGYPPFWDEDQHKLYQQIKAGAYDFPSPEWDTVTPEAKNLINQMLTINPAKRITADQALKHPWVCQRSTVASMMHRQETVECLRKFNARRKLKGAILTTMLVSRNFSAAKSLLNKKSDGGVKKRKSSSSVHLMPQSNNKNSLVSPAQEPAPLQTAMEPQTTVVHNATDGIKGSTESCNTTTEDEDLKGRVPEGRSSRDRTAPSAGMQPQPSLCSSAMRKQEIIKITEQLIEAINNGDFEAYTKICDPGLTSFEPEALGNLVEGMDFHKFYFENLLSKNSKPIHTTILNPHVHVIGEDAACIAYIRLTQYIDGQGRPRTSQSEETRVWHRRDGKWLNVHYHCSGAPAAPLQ

[14] = target: Muscarinic acetylcholine receptor M3 (Homo sapiens) (UniProt P20309); settings: Compound concentration 10.0 uM
[15] = target: T2, Mitogen-activated protein kinase kinase kinase 7 (Homo sapiens) (UniProt O43318)
T2 sequence (whole entry): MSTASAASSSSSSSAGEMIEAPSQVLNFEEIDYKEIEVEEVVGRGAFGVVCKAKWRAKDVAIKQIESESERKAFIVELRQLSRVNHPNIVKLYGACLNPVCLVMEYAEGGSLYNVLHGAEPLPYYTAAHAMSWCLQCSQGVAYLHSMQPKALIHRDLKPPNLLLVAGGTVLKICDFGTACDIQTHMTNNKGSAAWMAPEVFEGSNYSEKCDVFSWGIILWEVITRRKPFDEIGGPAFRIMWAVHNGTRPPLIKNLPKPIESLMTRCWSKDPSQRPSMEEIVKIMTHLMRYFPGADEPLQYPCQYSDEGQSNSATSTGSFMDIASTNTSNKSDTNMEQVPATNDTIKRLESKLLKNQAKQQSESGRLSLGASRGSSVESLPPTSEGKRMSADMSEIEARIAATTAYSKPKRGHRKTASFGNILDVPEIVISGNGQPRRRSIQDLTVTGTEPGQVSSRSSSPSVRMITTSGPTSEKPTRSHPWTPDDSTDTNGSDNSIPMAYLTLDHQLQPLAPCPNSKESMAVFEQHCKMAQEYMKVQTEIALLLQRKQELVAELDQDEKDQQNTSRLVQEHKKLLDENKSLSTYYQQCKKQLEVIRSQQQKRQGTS

[16] = target: Sigma non-opioid intracellular receptor 1 (Homo sapiens, UniProt Q99720); settings: Compound concentration 10.0 uM
Sequence of Sigma non-opioid intracellular receptor 1 (Q99720 whole entry, the tested form may be a part): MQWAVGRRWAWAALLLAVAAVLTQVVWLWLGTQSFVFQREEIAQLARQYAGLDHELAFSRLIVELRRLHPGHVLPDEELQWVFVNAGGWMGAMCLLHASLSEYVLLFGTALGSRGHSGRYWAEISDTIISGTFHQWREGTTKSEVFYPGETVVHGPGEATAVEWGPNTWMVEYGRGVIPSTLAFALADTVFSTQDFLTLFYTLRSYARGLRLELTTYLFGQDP

[17] = target: LIM domain kinase 1 (Homo sapiens) (UniProt P53667)
Sequence of LIM domain kinase 1 (Homo sapiens) (P53667 whole entry, looked up, the tested form may be a part): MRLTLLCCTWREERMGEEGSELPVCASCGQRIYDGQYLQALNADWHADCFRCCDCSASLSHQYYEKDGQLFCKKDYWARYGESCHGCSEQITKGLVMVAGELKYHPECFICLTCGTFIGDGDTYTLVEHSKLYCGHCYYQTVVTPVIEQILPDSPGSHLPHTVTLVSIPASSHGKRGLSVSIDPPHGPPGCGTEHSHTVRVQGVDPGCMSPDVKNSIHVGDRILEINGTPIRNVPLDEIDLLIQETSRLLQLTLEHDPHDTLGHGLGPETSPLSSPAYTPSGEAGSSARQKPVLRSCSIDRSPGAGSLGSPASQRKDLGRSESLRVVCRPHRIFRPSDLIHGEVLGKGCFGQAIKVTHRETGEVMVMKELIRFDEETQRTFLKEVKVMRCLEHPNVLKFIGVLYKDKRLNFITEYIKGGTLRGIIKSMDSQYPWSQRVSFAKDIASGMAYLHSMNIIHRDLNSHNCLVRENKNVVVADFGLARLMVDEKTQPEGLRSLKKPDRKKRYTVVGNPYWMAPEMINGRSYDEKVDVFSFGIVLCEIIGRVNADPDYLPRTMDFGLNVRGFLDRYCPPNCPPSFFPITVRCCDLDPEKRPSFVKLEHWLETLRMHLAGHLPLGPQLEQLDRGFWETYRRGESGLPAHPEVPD

[18] = target: Serine/threonine-protein kinase LATS2 (Homo sapiens) (UniProt Q9NRM7)
[19] = target: Calcium/calmodulin-dependent protein kinase type 1D (Homo sapiens) (UniProt Q8IU85)
Sequence of Calcium/calmodulin-dependent protein kinase type 1D (Homo sapiens) (Q8IU85 whole entry, looked up): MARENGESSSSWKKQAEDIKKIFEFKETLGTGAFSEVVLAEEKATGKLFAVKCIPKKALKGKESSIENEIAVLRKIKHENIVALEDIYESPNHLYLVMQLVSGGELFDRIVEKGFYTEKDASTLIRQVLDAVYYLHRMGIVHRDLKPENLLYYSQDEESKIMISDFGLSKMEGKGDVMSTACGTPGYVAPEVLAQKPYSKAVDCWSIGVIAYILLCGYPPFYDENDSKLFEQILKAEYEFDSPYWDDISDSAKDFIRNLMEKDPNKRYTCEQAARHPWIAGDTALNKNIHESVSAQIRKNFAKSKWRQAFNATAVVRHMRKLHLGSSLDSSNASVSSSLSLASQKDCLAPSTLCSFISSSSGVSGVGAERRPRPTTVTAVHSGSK

[20] = target: GABA-A receptor; anion channel (Rattus norvegicus) (UniProt O09028+P15431+P18506+P18508+P19969+P20236+P23574+P23576+P28471+P28473+P30191+P62813+P63079+P63138+Q91ZM7+Q9ES14); settings: Compound concentration 10.0 uM
[21] = Compound concentration 100.0 nM
[22] = Compound concentration 1000.0 nM

Sequence of Ribosomal protein S6 kinase alpha-5 (Homo sapiens) (O75582 whole entry, looked up): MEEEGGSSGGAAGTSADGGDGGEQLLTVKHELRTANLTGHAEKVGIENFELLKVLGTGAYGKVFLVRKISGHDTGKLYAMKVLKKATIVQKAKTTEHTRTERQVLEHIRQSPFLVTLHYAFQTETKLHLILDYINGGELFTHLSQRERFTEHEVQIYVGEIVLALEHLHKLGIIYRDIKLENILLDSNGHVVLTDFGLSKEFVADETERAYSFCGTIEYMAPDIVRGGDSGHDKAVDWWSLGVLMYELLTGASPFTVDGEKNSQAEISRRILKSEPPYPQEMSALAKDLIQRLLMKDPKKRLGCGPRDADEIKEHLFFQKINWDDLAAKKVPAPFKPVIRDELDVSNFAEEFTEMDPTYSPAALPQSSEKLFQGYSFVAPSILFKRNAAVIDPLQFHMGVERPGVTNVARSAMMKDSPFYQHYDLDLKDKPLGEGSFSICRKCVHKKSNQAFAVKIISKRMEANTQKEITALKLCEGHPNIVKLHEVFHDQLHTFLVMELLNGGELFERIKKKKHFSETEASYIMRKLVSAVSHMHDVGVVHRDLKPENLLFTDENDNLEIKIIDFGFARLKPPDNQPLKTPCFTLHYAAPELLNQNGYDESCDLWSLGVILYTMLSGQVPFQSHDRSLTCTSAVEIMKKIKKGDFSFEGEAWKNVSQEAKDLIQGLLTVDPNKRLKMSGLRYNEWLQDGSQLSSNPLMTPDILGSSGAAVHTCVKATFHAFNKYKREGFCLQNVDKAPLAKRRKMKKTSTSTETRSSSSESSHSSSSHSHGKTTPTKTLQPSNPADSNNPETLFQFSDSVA
Sequence of Histamine H1 receptor (Homo sapiens) (P35367 whole entry): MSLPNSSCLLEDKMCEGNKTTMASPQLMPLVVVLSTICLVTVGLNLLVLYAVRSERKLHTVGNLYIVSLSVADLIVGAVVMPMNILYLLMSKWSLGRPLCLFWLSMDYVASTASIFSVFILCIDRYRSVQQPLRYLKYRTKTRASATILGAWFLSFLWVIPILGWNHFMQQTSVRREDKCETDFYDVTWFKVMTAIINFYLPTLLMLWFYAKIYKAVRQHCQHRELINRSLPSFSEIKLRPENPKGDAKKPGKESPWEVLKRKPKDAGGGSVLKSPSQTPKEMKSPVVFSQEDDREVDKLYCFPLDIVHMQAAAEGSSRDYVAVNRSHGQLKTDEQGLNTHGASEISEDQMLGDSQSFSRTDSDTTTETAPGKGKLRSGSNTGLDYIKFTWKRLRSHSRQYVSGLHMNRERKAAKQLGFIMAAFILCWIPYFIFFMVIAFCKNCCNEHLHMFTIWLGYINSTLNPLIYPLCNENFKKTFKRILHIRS

## C[C@@H]1CN(c2cc(-c3n[nH]c4ccc(OC5(C)CC5)cc34)ncn2)C[C@H](C)O1 [MLi-2]
[1]; [21]
  residual activity: 89%
[2]
  inhibition: 6.66%
[3]; [21]
  residual activity: 85%
[4]; [21]
  residual activity: 73%
[5]
  inhibition: -6.46%
[6]
  inhibition: 7.85%
[7]; [21]
  residual activity: 95%
[8]; [21]
  residual activity: 98%
[9]
  inhibition: -2.29%
[10]; [21]
  residual activity: 78%
[11]; [21]
  residual activity: 84%
[12]; [21]
  residual activity: 67%
[13]; [21]
  residual activity: 100%
[14]
  inhibition: 7.93%
[15]; [21]
  residual activity: 70%
[16]
  inhibition: 35.9%
[17]; [21]
  residual activity: 86%
[18]; [21]
  residual activity: 68%
[19]; [21]
  residual activity: 100%
[20]
  inhibition: 7.14%

## C[C@@H]1CN(c2cc(-c3nn(C)c4ccc(OC5(C)CC5)cc34)ncn2)C[C@H](C)O1 [MLi-2-NC]
[1]; [22]
  residual activity: 79%
[2]
  inhibition: 23.3%
[3]; [22]
  residual activity: 81%
[4]; [22]
  residual activity: 80%
[5]
  inhibition: 11.9%
[6]
  inhibition: 15.1%
[7]; [22]
  residual activity: 100%
[8]; [22]
  residual activity: 83%
[9]
  inhibition: -3.49%
[10]; [22]
  residual activity: 71%
[11]; [22]
  residual activity: 84%
[12]; [22]
  residual activity: 79%
[13]; [22]
  residual activity: 90%
[14]
  inhibition: 6.03%
[15]; [22]
  residual activity: 89%
[16]
  inhibition: 58.2%
[17]; [22]
  residual activity: 95%
[18]; [22]
  residual activity: 58%
[19]; [22]
  residual activity: 100%
[20]
  inhibition: 2.92%
